# In ChEMBL document CHEMBL1201862, “PubChem BioAssay data set” (2004):
#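 Grown in 96-well plates, cells were treated for 48 hours with each compound at five concentrations. Insufficient inhibition: endpoint recorded as highest concentration tested. GI50 marks 50% less growth.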 Active and inactive are the calls of the source. Cut-off read from the data, not from the text of the source: active = GI50 up to about 1.1 µM and inactive = higher.
# Experiments:
# Assay in all cases: growth of human tumour cells (NCI), 48 h
# CCRF-CEM = system: CCRF-CEM
# UACC-257 = system: UACC-257
# HCC 2998 = system: HCC 2998
# OVCAR-3 = system: OVCAR-3
# UO-31 = system: UO-31
# SK-MEL-28 = system: SK-MEL-28
# KM12 = system: KM12
# T47D = system: T47D
# HCT-116 = system: HCT-116
# UACC-62 = system: UACC-62
# MDA-MB-231 = system: MDA-MB-231
# HCT-15 = system: HCT-15
# BT-549 = system: BT-549
# NCI-H522 = system: NCI-H522
# SF-539 = system: SF-539
# MCF7 = system: MCF7
# 786-0 = system: 786-0
# SNB-19 = system: SNB-19
# SR = system: SR
SMILES,GI50 (CCRF-CEM),GI50 (UACC-257),GI50 (HCC 2998),GI50 (OVCAR-3),GI50 (UO-31),GI50 (SK-MEL-28),GI50 (KM12),GI50 (T47D),GI50 (HCT-116),GI50 (UACC-62),GI50 (MDA-MB-231),GI50 (HCT-15),GI50 (BT-549),GI50 (NCI-H522),GI50 (SF-539),GI50 (MCF7),GI50 (786-0),GI50 (SNB-19),GI50 (SR)
CCOC(=O)/C=C(\C(=O)OCC)n1ccc(=O)n(Cc2cnnn2COCCOC(C)=O)c1=O,1.61 µM (inactive),16.2 µM (inactive),17.9 µM (inactive),11 µM (inactive),16.8 µM (inactive),10 µM (inactive),16.1 µM (inactive),6.11 µM (inactive),9.25 µM (inactive),16.1 µM (inactive),17.6 µM (inactive),7.67 µM,8.28 µM (inactive),1.61 µM (inactive),2.36 µM (inactive),6.4 µM (inactive),3.73 µM (inactive),> 46.7 µM (inactive),–
CC(C)(O)C1OCC(C2CCC3(C)C4=CCC5C(C)(C)C(O)CCC5(C)C4CCC23C)CC1O (configuration not stated),26.4 µM (inactive),18.4 µM (inactive),16.6 µM (inactive),17.1 µM (inactive),16 µM (inactive),15.8 µM (inactive),14 µM (inactive),13.7 µM (inactive),14.5 µM (inactive),14.9 µM (inactive),15.3 µM (inactive),14.8 µM,11.1 µM (inactive),11.5 µM (inactive),13.6 µM (inactive),11.6 µM (inactive),14.2 µM (inactive),16.4 µM (inactive),–
CC#C[C@]1(O)CCC2[C@@H]3CCC4=CC(=O)CCC4=C3[C@@H](c3ccc(N(C)C)cc3)C[C@@]21C (some centres not stated),9.75 µM (inactive),13.2 µM (inactive),–,8.28 µM (inactive),8.2 µM (inactive),14.4 µM (inactive),15.7 µM (inactive),6.84 µM (inactive),15 µM (inactive),3.36 µM (inactive),8.79 µM (inactive),12.3 µM,16.6 µM (inactive),–,12.6 µM (inactive),5.27 µM (inactive),15.2 µM (inactive),35 µM (inactive),14.1 µM (inactive)
C#CCNCC(=O)O,> 100 µM (inactive),> 100 µM (inactive),> 100 µM (inactive),> 100 µM (inactive),> 100 µM (inactive),> 100 µM (inactive),> 100 µM (inactive),> 100 µM (inactive),> 100 µM (inactive),> 100 µM (inactive),> 100 µM (inactive),> 100 µM,> 100 µM (inactive),> 100 µM (inactive),> 100 µM (inactive),> 100 µM (inactive),> 100 µM (inactive),> 100 µM (inactive),–
NC(=O)c1nnn(-c2ccccc2)c1O,> 100 µM (inactive),> 100 µM (inactive),> 100 µM (inactive),> 100 µM (inactive),> 100 µM (inactive),> 100 µM (inactive),> 100 µM (inactive),> 100 µM (inactive),> 100 µM (inactive),> 100 µM (inactive),> 100 µM (inactive),> 100 µM,> 100 µM (inactive),> 100 µM (inactive),> 100 µM (inactive),> 100 µM (inactive),> 100 µM (inactive),> 100 µM (inactive),–
CC(C)(C)c1cc(C(O)(C(=O)O)C(=O)O)cc(C(C)(C)C)c1O,> 100 µM (inactive),> 100 µM (inactive),–,> 100 µM (inactive),> 100 µM (inactive),> 100 µM (inactive),> 100 µM (inactive),> 100 µM (inactive),> 100 µM (inactive),> 100 µM (inactive),> 100 µM (inactive),> 100 µM,> 100 µM (inactive),> 100 µM (inactive),> 100 µM (inactive),> 100 µM (inactive),> 100 µM (inactive),> 100 µM (inactive),> 100 µM (inactive)
